Reference: publication PMC9015904 (ChemMedChem, 2022)
Marks after values point to notes of the source that are not given here.

Key:
[1] = molecular target: T1, hKOR (Homo sapiens, UniProt P41145); experiment: biochemical; assay type: binding
[2] = molecular target: T2, hDOR (Homo sapiens, UniProt P41143); experiment: GTPγS functional assay, DOR; assay type: biochemical
[3] = test system: male C57BL/6NHsd mice; details: mouse, in vivo
[4] = test system: male C57BL/6NHsd mice; details: mouse, in vivo; remark: listed apart in the source
[5] = molecular target: T3, hMOR (Homo sapiens, UniProt P35372); experiment: biochemical; assay type: binding
[6] = molecular target: T3, hMOR; experiment: GTPγS functional assay, MOR; assay type: biochemical; details: from GTPγS EC50 values
[7] = test system: male C57BL/6NHsd mice; details: mouse, in vivo; remark: listed apart in the source
[8] = molecular target: T1, hKOR; experiment: biochemical; assay type: biochemical
[9] = molecular target: T2, hDOR; experiment: Competitive radioligand binding assay, DOR
[10] = molecular target: MOR; details: cited from earlier work
[11] = test system: KOR; experiment: Literature binding affinity at KOR; details: from literature Ki values
[12] = molecular target: DOR; details: cited from earlier work
[13] = molecular target: KOR; details: cited from earlier work
[14] = test system: MOR; experiment: Literature binding affinity at MOR; details: from literature Ki values

T1 sequence (P41145 whole entry): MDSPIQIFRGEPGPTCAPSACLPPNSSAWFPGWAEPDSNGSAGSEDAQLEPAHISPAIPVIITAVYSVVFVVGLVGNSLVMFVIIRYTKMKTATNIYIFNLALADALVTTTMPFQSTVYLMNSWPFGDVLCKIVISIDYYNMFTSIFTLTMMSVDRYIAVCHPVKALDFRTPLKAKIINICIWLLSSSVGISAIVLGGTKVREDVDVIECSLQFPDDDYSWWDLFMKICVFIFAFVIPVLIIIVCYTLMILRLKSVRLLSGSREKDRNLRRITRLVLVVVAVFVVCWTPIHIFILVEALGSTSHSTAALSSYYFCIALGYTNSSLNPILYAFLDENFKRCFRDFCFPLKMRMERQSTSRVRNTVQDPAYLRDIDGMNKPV
T2 sequence (P41143 whole entry): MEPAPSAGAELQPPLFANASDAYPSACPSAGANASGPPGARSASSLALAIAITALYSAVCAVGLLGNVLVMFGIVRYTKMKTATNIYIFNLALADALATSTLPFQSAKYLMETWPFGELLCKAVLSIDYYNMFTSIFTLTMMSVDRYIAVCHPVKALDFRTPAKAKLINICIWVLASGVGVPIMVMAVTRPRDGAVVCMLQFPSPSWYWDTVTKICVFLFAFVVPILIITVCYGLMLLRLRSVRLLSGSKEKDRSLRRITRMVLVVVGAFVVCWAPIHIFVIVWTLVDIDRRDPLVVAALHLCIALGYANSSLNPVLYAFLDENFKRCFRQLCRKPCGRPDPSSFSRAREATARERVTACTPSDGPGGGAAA
T3 sequence (P35372 whole entry): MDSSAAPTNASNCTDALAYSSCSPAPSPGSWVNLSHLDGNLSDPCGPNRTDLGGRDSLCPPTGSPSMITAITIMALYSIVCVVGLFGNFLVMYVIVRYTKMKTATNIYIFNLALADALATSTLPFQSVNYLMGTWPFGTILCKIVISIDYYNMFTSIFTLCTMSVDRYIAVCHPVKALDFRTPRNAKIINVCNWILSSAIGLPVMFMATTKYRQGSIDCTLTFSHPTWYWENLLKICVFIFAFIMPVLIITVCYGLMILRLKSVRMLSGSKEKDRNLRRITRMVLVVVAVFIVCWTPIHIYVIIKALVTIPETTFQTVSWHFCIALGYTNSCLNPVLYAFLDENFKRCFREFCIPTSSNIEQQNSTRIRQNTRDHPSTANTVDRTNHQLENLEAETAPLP

| Structure (SMILES) | Kd [1] [µM] | fold preference towards KOR (binding affinity, KOR vs MOR) [1] [fold] | EC50 [2] [µM] | latency to tail withdrawal compared to vehicle [3] | latency to hind paw lick or flutter compared to vehicle [4] | Kd [5] [µM] | fold higher potency at MOR (vs KOR) [6] [fold] | distance traveled in the maze compared to vehicle ([7]; male, C57BL/6NHsd) | time spent in the open arms compared to vehicle [7] | Full or partial agonist (KOR) [8] | Kd [9] [µM] | Kd ([10]; read-out: KD [nM] (MOR)) | Ki ([10]; read-out: Ki (MOR)) [µM] | fold lower affinity for KOR compared to salvinorin A [11] [fold] | Kd ([12]; read-out: KD [nM] (DOR), Literature values) | Ki ([12]; read-out: Ki (DOR)) [µM] | Kd ([13]; read-out: KD [nM] (KOR)) | Ki ([13]; read-out: Ki (KOR)) [µM] | fold higher affinity for MOR compared to salvinorin A [14] [fold] |
| --- | --- | --- | --- | --- | --- | --- | --- | --- | --- | --- | --- | --- | --- | --- | --- | --- | --- | --- | --- |
| COC(=O)[C@@H]1C[C@H](OC(=O)C2=Cc3ccccc3C2)C(=O)[C@H]2[C@@]1(C)CC[C@H]1C(=O)O[C@H](c3ccoc3)C[C@]21C [Compound 2, Methyl-(2S,4aR,6aR,7R,9S,10aS,10bR)-9-((1H-indene-2-carbonyl)oxy)-2-(furan-3-yl)-6a,10b-dimethyl-4,10-dioxododecahydro-2H-benzo[f]isochromene-7-carboxylate] | 0.0497 | 11 | 2.35 | Neither salvinorin A, herkinorin, nor compounds 2 or 10 demonstrated significant antinociception | significant increase in the latency to paw response | 0.538 | 17 | neither salvinorin A, nor compound 2, altered the distance | significantly increased the amount of time spent on the open arms of the maze | 853 (456–1600)^[d] | 0.714 | – | – | – | – | – | – | – | – |
| COC(=O)[C@@H]1C[C@H](OC(=O)c2ccccc2)C(=O)[C@H]2[C@@]1(C)CC[C@H]1C(=O)O[C@H](c3ccoc3)C[C@]21C [Herkinorin] | – | – | – | Neither salvinorin A, herkinorin, nor compounds 2 or 10 demonstrated significant antinociception | Neither salivinorin A, herkinorin, nor compound 10 were observed to significantly influence the latency to paw response | – | – | – | notable increase in open arm time, but this was not statistically significant | – | – | 12 ± 1 | 0.012 | 47 | 1170 ± 60 | 1.17 | 90 ± 2 | 0.09 | ≥ 83 |
